Laboratory results from US20150374676A1, “HELICASE-PRIMASE INHIBITORS FOR USE IN A METHOD OF TREATING ALZHEIMER'S DISEASE” (AICURIS GMBH & CO. KG, priority 2013, published 2015).
Read-outs that look alike come from different tables or passages of the source.

Experiment: Single-dose escalation pharmacokinetics in volunteers
Type: in vivo, human
Details: for AUC(0-t): read-out: AUC0-24h
From the text: Exposure of the free base form of N-[5-(aminosulfonyl)-4-methyl-1,3-thiazol-2-yl]-N-methyl-2-[4-(2-pyridinyl)-phenyl]acetamide to the human body may be measured by high pressure liquid chromatography (HPLC) by looking at different pharmacokinetic parameters in suitable bodily fluids such as for instance blood plasma and urine, the most common parameters being the Cmax, the so-called area under the curve (AUC), and the terminal half-life (t1/2Z). Hereto, the person skilled in the art understands that said parameters are determined by using adequate bioanalytical methods with adequate sensitivity, specificity, ruggedness, stability and repeatability, as for instance a qualified liquid chromatography triple quad mass spectrometry based method coupled with a suitable extraction method for the separation of the analyte from, e.g. the blood plasma.
Therefore, pharmacokinetic studies in human subjects were undertaken following both single and multiple dose administrations of the crystalline mono mesylate monohydrate salt of N-[5-(aminosulfonyl)-4-methyl-1,3-thiazol-2-yl]-N-methyl-2-[4-(2-pyridinyl)phenyl]acetamide, wherein the particle size distribution is preferably defined by d(0.1) from 2 to 100 μm, d(0.5) from 30 to 210 μm and d(0.9) from 70 to 400 μm with a specific surface area of the particles less than 1.0 m^2/g, and more preferably defined by d(0.1) from 10 to 75 μm, d(0.5) from 100 to 175 μm, d(0.9) from 200 to 350 μm with a specific surface area of the particles less than 0.3 m^2/g.
Single oral doses of the crystalline mono mesylate monohydrate salt of N-[5-(aminosulfonyl)-4methyl1,3thiazol-2-yl]-N-methyl-2-[4-(2-pyridinyl)phenyl]acetamide using the formulations in accordance with example a and Table a, were administered to six volunteers per dose step. The overall shape of the plasma concentrations vs. time profiles were similar across all doses applied (see FIG. 4 and FIG. 6).
Table b: Pharmacokinetic parameters after ascending single oral doses of crystalline mono mesylate monohydrate salt of N-[5-(aminosulfonyl)-4-methyl-1,3-thiazol-2-yl]-N-methyl-2-[4-(2-pyridinyl)phenyl]acetamide in the formulations in accordance with table a wherein the particle size distribution is preferably defined by d(0.1) from 2 to 100 μm, d(0.5) from 30 to 210 μm and d(0.9) from 70 to 400 μm with a specific surface area of the particles less than 1.0 m^2/g, and more preferably defined by d(0.1) from 10 to 75 μm, d(0.5) from 100 to 175 μm, d(0.9) from 200 to 350 μm with a specific surface area of the particles less than 0.3 m^2/g.
AUC0-∞: Area under the analyte vs. time concentration from time of administration up to infinity, calculated as
wherein AUC0-last is defined as the area under the analyte vs. time concentration up to time of the last qualifiable concentration, calculated by linear up/log down summation and Clast is defined as last quantifiable observed analyte concentration. λz is the apparent terminal elimination rate constant, determined by linear regression of terminal points of In-linear analyte concentration-time curve.
Cmax is the maximal observed analyte concentration and tmax is the time to reach Cmax;
t1/2z is defined as the apparent terminal elimination half-life, calculated as
MRT: Mean Residence Time; calculated AUMC divided by AUC, wherein AUMC is the area under the first moment of the concentration-time curve from zero up to ∞ with extrapolation of the terminal phase and AUC is the area under the concentration-time curve from zero up to ∞ with extrapolation of the terminal phase.
CL/F refers to the clearance after oral administration of a drug and Ae refers to the amount of drug excreted in the urine.

t1/2z on average (40 mg dosage as free base equivalent, single oral dose): 72 ± 3 h | t1/2z on average (80 mg dosage as free base equivalent, single oral dose): 74 ± 5 h | t1/2z on average (160 mg dosage as free base equivalent, single oral dose): 63 ± 6 h | t1/2z on average (240 mg dosage as free base equivalent, single oral dose): 64 ± 5 h | t1/2z on average (320 mg dosage as free base equivalent, single oral dose): 57 ± 3 h | t1/2z on average (400 mg dosage as free base equivalent, single oral dose): 57 ± 4 h | t1/2z on average (480 mg dosage as free base equivalent, single oral dose): 53 ± 4 h | MRT (female, plasma, single oral dose 80 mg free base equivalent, females, human, mean, n = 6): 77 h | Tmax (female, plasma, single oral dose 80 mg free base equivalent, females, human, median, n = 6, read-out: tmax): 4 h | AUC(0-inf) (female, single oral dose 80 mg free base equivalent, females, human, mean, n = 6, free base in plasma): 96200 ng·h/mL | Cmax (female, single oral dose 80 mg free base equivalent, females, human, mean, n = 6, free base in plasma, read-out: Cmax): 2000 ng/mL | AUC(0-t) (human, plasma, 80 mg dosage as free base equivalent, single oral dose): 21900 ± 2060 ng·h/mL | Cmax (human, plasma, 80 mg dosage as free base equivalent, single oral dose, read-out: mean maximum blood plasma concentration (mean Cmax) of the free base): 1310 ± 125 ng/mL | AUC(0-t) (human, plasma, 160 mg dosage as free base equivalent, single oral dose): 40500 ± 16700 ng·h/mL | Cmax (human, plasma, 160 mg dosage as free base equivalent, single oral dose, read-out: mean maximum blood plasma concentration (mean Cmax) of the free base): 2610 ± 1340 ng/mL | AUC(0-t) (human, plasma, 240 mg dosage as free base equivalent, single oral dose): 59600 ± 12800 ng·h/mL | Cmax (human, plasma, 240 mg dosage as free base equivalent, single oral dose, read-out: mean maximum blood plasma concentration (mean Cmax) of the free base): 3600 ± 752 ng/mL | AUC(0-t) (human, plasma, 320 mg dosage as free base equivalent, single oral dose): 76200 ± 27600 ng·h/mL | Cmax (human, plasma, 320 mg dosage as free base equivalent, single oral dose, read-out: mean maximum blood plasma concentration (mean Cmax) of the free base): 4650 ± 1810 ng/mL | AUC(0-t) (human, plasma, 400 mg dosage as free base equivalent, single oral dose): 105000 ± 25700 ng·h/mL | Cmax (human, plasma, 400 mg dosage as free base equivalent, single oral dose, read-out: mean maximum blood plasma concentration (mean Cmax) of the free base): 6930 ± 1660 ng/mL | AUC(0-t) (human, plasma, 480 mg dosage as free base equivalent, single oral dose): 113000 ± 34300 ng·h/mL | Cmax (human, plasma, 480 mg dosage as free base equivalent, single oral dose, read-out: mean maximum blood plasma concentration (mean Cmax) of the free base): 6920 ± 2190 ng/mL | AUC(0-t) (male, human, plasma, 40 mg dosage as free base equivalent, single oral dose): 10100 ± 3110 ng·h/mL | Cmax (male, human, plasma, 40 mg dosage as free base equivalent, single oral dose, read-out: mean maximum blood plasma concentration (mean Cmax) of the free base): 608 ± 184 ng/mL | MRT (male, plasma, single oral dose 80 mg free base equivalent, males, human, mean, n = 6): 94 h | Tmax (male, plasma, single oral dose 80 mg free base equivalent, males, human, median, n = 6, read-out: tmax): 2.5 h | AUC(0-inf) (male, single oral dose 80 mg free base equivalent, males, human, mean, n = 6, free base in plasma): 87200 ng·h/mL | Cmax (male, single oral dose 80 mg free base equivalent, males, human, mean, n = 6, free base in plasma, read-out: Cmax): 1310 ng/mL | MRT (plasma, single oral dose 5 mg free base equivalent, human, mean, n = 6): 117 h | Tmax (plasma, single oral dose 5 mg free base equivalent, human, median, n = 6, read-out: tmax): 4 h | MRT (plasma, single oral dose 10 mg free base equivalent, human, mean, n = 6): 116 h | Tmax (plasma, single oral dose 10 mg free base equivalent, human, median, n = 6, read-out: tmax): 1.5 h | MRT (plasma, single oral dose 20 mg free base equivalent, human, mean, n = 6): 105 h | Tmax (plasma, single oral dose 20 mg free base equivalent, human, median, n = 6, read-out: tmax): 2.77 h | MRT (plasma, single oral dose 40 mg free base equivalent, human, mean, n = 6): 94 h | Tmax (plasma, single oral dose 40 mg free base equivalent, human, median, n = 6, read-out: tmax): 3.5 h | MRT (plasma, single oral dose 160 mg free base equivalent, human, mean, n = 6): 83 h | Tmax (plasma, single oral dose 160 mg free base equivalent, human, median, n = 6, read-out: tmax): 3.5 h | MRT (plasma, single oral dose 240 mg free base equivalent, human, mean, n = 6): 82 h | Tmax (plasma, single oral dose 240 mg free base equivalent, human, median, n = 6, read-out: tmax): 4 h | MRT (plasma, single oral dose 320 mg free base equivalent, human, mean, n = 6): 70 h | Tmax (plasma, single oral dose 320 mg free base equivalent, human, median, n = 6, read-out: tmax): 2.25 h | MRT (plasma, single oral dose 400 mg free base equivalent, human, mean, n = 6): 64 h | Tmax (plasma, single oral dose 400 mg free base equivalent, human, median, n = 6, read-out: tmax): 4.25 h | MRT (plasma, single oral dose 480 mg free base equivalent, human, mean, n = 6): 72 h | Tmax (plasma, single oral dose 480 mg free base equivalent, human, median, n = 6, read-out: tmax): 3.25 h | MRT (plasma, single oral dose 600 mg free base equivalent, human, mean, n = 6): 65 h | Tmax (plasma, single oral dose 600 mg free base equivalent, human, median, n = 6, read-out: tmax): 4.25 h | Tmax (plasma, single oral doses 5-600 mg free base equivalent, human, no obvious relation to dose, read-out: median tmax, range over doses): 1.5 to 4.25 h | half-life (plasma, single oral doses 5-600 mg free base equivalent, human, read-out: mean terminal elimination half-life (t1/2z), range over doses): 52 to 85 h | dose dependence of maximum plasma concentrations (single doses from 5 mg to 400 mg as free base equivalent, human): linearly related to doses | dose dependence of AUC0-∞ (single doses from 5 mg to 480 mg as free base equivalent, human): dose-proportional increase
Structure (SMILES): CS(=O)(=O)O.Cc1nc(N(C)C(=O)Cc2ccc(-c3ccccn3)cc2)sc1S(N)(=O)=O [mono mesylate monohydrate salt, N-[5-(aminosulfonyl)-4-methyl-1,3-thiazol-2-yl]-N-methyl-2-[4-(2-pyridinyl)-phenyl]acetamide mono methanesulfonic acid monohydrate]
gender-related difference in exposure (single dose of 80 mg as free base equivalent, after normalization to body weight): No clinical relevant gender-related difference in exposure | exposure as shown by AUC0-∞ at the highest dose (single dose of 600 mg as free base equivalent, human): did not cause any further rise of exposure
